These compounds were tested against Prostaglandin E synthase (Homo sapiens) (UniProt O14684) (assay: Inhibition of human mPGES1).
Chain of Prostaglandin E synthase (Homo sapiens) (O14684 whole entry, looked up): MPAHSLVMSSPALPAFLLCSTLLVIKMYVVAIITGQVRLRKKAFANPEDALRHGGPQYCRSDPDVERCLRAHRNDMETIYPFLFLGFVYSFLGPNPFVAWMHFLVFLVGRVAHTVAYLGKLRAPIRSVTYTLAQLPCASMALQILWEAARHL

| Structure (SMILES) | IC50 |
| --- | --- |
| CCCCCCCCCCCC1=C(O)C(=O)C=C(O)C1=O [CHEBI:4778] | 0.21 µM |

The compounds below were run against Prostaglandin E synthase (Homo sapiens) (UniProt O14684) (assay: Inhibition of mPGES1 in IL-1beta stimulated human A549 cell microsomal membranes assessed as reduction in PGE2 synthase activity after 15 mins using PGH2 substrate by RP-HPLC method).

| Structure (SMILES) | IC50 |
| --- | --- |
| CCCCCCCCCCCCC1=C(O)C(=O)C=C(OC)C1=O | 5.8 µM |
| CCCCCCCCCCC1=C(O)C(=O)C=C(OC)C1=O | > 10 µM |
| CCCCCCCCCCCCCCC1=C(O)C(=O)C=C(O)C1=O | 1.6 µM |
| CCCCCCCCCCCCC1=C(O)C(=O)C=C(O)C1=O | 3.1 µM |
| CCCCCCCCCCC1=C(O)C(=O)C=C(O)C1=O | 1 µM |
| CCCCCCCCC1=C(O)C(=O)C=C(O)C1=O | 0.8 µM |
| CCCCCCC1=C(O)C(=O)C=C(O)C1=O | > 10 µM |
| CCCCC1=C(O)C(=O)C=C(O)C1=O | > 10 µM |
| CCCCCCCCCCCCCCC1=C(O)C(=O)C=C(OC)C1=O | > 10 µM |
| CCCCCCCCCCCCCCCC1=C(O)C(=O)C=C(OC)C1=O | 9.3 µM |
| CCCCCCCCCCCCCCCCC1=C(O)C(=O)C=C(OC)C1=O | > 10 µM |
| COC1=CC(=O)C(O)=C(C/C=C(\C)CCC=C(C)C)C1=O | > 10 µM |
| COC1=CC(=O)C(O)=C(C/C=C(\C)CC/C=C(\C)CCC=C(C)C)C1=O | > 10 µM |
| CCCCC1=C(OC)C(=O)C=C(OC)C1=O | > 10 µM |
| CCCCCCC1=C(OC)C(=O)C=C(OC)C1=O | > 10 µM |
| CCCCCCCCC1=C(OC)C(=O)C=C(OC)C1=O | > 10 µM |
| CCCCCCCCCCC1=C(OC)C(=O)C=C(OC)C1=O | > 10 µM |
| CCCCCCCCCCCC1=C(OC)C(=O)C=C(OC)C1=O | > 10 µM |
| CCCCCCCCCCCCC1=C(OC)C(=O)C=C(OC)C1=O | 4.7 µM |
| CCCCCCCCCCCCCC1=C(OC)C(=O)C=C(OC)C1=O | 1.8 µM |
| CCCCCCCCCCCCCCC1=C(OC)C(=O)C=C(OC)C1=O | 4.4 µM |
| CCCCCCCCCCCCCCCC1=C(OC)C(=O)C=C(OC)C1=O | 7.2 µM |
| CCCCCCCCCCCCCCCCC1=C(OC)C(=O)C=C(OC)C1=O | > 10 µM |
| COC1=CC(=O)C(OC)=C(C/C=C(\C)CCC=C(C)C)C1=O | > 10 µM |

| Structure (SMILES) | IC50 |
| --- | --- |
| COC1=CC(=O)C(OC)=C(C/C=C(\C)CC/C=C(\C)CCC=C(C)C)C1=O | > 10 µM |
| CCCCC1=C(OC)C(OC)=CC(=O)C1=O | > 10 µM |
| CCCCCCC1=C(OC)C(OC)=CC(=O)C1=O | > 10 µM |
| CCCCCCCCC1=C(OC)C(OC)=CC(=O)C1=O | > 10 µM |
| CCCCCCCCC1=C(O)C(=O)C=C(OC)C1=O | > 10 µM |
| CCCCCCC1=C(O)C(=O)C=C(OC)C1=O | > 10 µM |
| CCCCC1=C(O)C(=O)C=C(OC)C1=O | > 10 µM |
| CC(C)=CCC/C(C)=C/CC/C(C)=C/CC1=C(O)C(=O)C=C(O)C1=O | > 10 µM |
| CC(C)=CCC/C(C)=C/CC1=C(O)C(=O)C=C(O)C1=O | > 10 µM |
| CCCCCCCCCCCCCCCCC1=C(O)C(=O)C=C(O)C1=O | > 10 µM |
| CCCCCCCCCCCCCCCC1=C(O)C(=O)C=C(O)C1=O | 2.1 µM |
| COC1=CC(=O)C(=O)C(C/C=C(\C)CC/C=C(\C)CCC=C(C)C)=C1OC | > 10 µM |
| COC1=CC(=O)C(=O)C(C/C=C(\C)CCC=C(C)C)=C1OC | > 10 µM |
| CCCCCCCCCCCCCCCC1=C(OC)C(OC)=CC(=O)C1=O | > 10 µM |
| CCCCCCCCCCCCCCC1=C(OC)C(OC)=CC(=O)C1=O | > 10 µM |
| CCCCCCCCCCCCCC1=C(OC)C(OC)=CC(=O)C1=O | > 10 µM |
| CCCCCCCCCCCCC1=C(OC)C(OC)=CC(=O)C1=O | > 10 µM |
| CCCCCCCCCCCC1=C(OC)C(OC)=CC(=O)C1=O | > 10 µM |
| CCCCCCCCCCC1=C(OC)C(OC)=CC(=O)C1=O | > 10 µM |
| CCCCCCCCCCCC1=C(O)C(=O)C=C(O)C1=O [CHEBI:4778] | 0.21 µM |
| CCCCCCCCCCCCCC1=C(O)C(=O)C=C(O)C1=O [CHEBI:8779] | 0.9 µM |
| CCCCCCCCCCCC1=C(O)C(=O)C=C(OC)C1=O [CHEBI:65842] | 9.1 µM |
| CCCCCCCCCCCCCC1=C(O)C(=O)C=C(OC)C1=O [Sorgoleone-364] | 6.1 µM |

From BindingDB's records for doi:10.1016/j.ejmech.2015.02.042 (University of Naples, 2015)
